Test results as given in patent publication US9802993B2, “Method for producing a cell for protein production by treating a cell overexpressing a taurine transporter with methotrexate” (Chugai Seiyaku Kabushiki Kaisha, priority 2007, dated 2017).

Tests used:
Format in all cases: cell-based, Chinese hamster
[1] = tested on: GC33/DXB11s/TauT/CSAD strain; test: Treatment with a high concentration of MTX: proliferation and antibody production ability; conditions: for amount of antibody production / number of viable cells: recovered, then cultured in 20 nM MTX, 15 mL tubes, initial 1×10^5 cells/mL, FIG. 4
Description: The GC33/DXB11s/TauT/CSAD strain, which was most MTX-resistant in Example 1, was subcultured in rotation culture for 28 days using the CHO-S-SFM II/CD-CHO mixed medium to which a high concentration of MTX (100 nM or 200 nM) had been added under the condition of 2×10^5 cells/mL in an initial stage, with the medium replaced every three to five days. […] By 14 days after that, i.e., on the 42nd day, the cells had begun to proliferate. The above two strains in which survival rates were recovered by subculture in the diluted medium (cells treated with 100 nM or 200 nM MTX) were cultured in 15 mL tubes using the CHO-S-SFM II/CD-CHO mixed medium in the presence of 20 nM MTX under the condition of 1×10^5 cells/mL in an initial stage. […] Also, the amount of antibody produced by the TauT/CSAD strain before treatment with a high concentration of MTX was 86 mg/L even when the number of viable cells grew to 19.6×10^5 cells/mL; thus, it was shown that the TauT/CSAD strain before treatment with a high concentration of MTX had the lowest production ability.

[2] = tested on: GC33/DXB11s, GC33/DXB11s/TauT and GC33/DXB11s/TauT/CSAD strains; test: Sensitivity to 200 nM MTX (survival rate) of anti-glypican-3 antibody-producing strains; conditions: MTX raised from 20 nM to 200 nM; CHO-S-SFM II/CD-CHO mixed medium; FIG. 2
Description: Then, pPur-CSAD expression plasmids (see Referential Example 4 described later, FIG. 6) were co-introduced into the above GC33/DXB11s/TauT strain to prepare a GC33/DXB11s/TauT/CSAD strain in which CSAD was strongly expressed. Subsequently, sensitivity to MTX of the GC33/DXB11s/TauT strain and the GC33/DXB11 s/TauT/C SAD strain was compared with that of the parent GC33/DXB11s strain. Because the parent strain was a strain capable of producing an antibody in which an antibody gene had been amplified to 20 copies or more (relative to the value before MTX treatment) by treatment with 20 nM MTX, the above strains could stably proliferate in the CHO-S-SFM II/CD-CHO mixed medium to which 20 nM MTX had been added.

DXB 11 s/TauT host cells = test: Sensitivity to MTX (survival rate) of host cells strongly expressing TauT in medium without HT; conditions: 10 nM or 20 nM MTX added; CHO-S-SFM II/CD-CHO mixed medium without HT; FIG. 1
Description: (§1) Into CHO DXB 11 s cells serving as host cells, pHyg-TauT expression plasmids (see Referential Example 2 described later, FIG. 5) were introduced by electroporation to prepare DXB 11 s/TauT host cells in which TauT was strongly expressed. Subsequently, sensitivity to MTX was compared between the DXB 11 s/TauT host cells and the DXB 11 s host cells which were the parent strain.

CHO DXB 11 s host cells = test: Sensitivity to MTX (survival rate) of parent host cells in medium without HT; conditions: 10 nM or 20 nM MTX added; CHO-S-SFM II/CD-CHO mixed medium without HT; FIG. 1
Description: as §1

## CN(Cc1cnc2nc(N)nc(N)c2n1)c1ccc(C(=O)N[C@@H](CCC(=O)O)C(=O)O)cc1 [MTX, methotrexate]
[1]; 100 nM or 200 nM MTX, subculture in rotation culture for 28 days, FIG. 3
  cell proliferation: no cell proliferation was observed
[1]; strain treated with 100 nM MTX
  amount of antibody production: 162 mg/L
  number of viable cells: 22.3×10^5 cells/mL
[1]; strain treated with 200 nM MTX
  amount of antibody production: 144 mg/L
  number of viable cells: 18.0×10^5 cells/mL
[2]
  survival rate: the survival rates in all of the above strains decreased
DXB 11 s/TauT host cells
  survival rate: reduction in the survival rate was suppressed at a level equivalent to the survival rate observed in the absence of MTX
CHO DXB 11 s host cells
  survival rate: a tendency of accelerated decrease in the survival rate was observed
